Measurements as given in patent US9957273B2, “5-substituted 7- [4-(2-pyridyl)phenylmethylamino] -3-isopropylpyrazolo4,3-D]pyrimidine derivatives, use thereof as medicaments, and pharmaceutical compositions” (USTAV EXPERIMENTALNI BOTANIKY AV CR, V.V.I., priority 2015, dated 2018).

Legend:
CDK2/Cyclin E = target: T1, CDK2/Cyclin E (Homo sapiens, UniProt P24941); experiment: CDK2/Cyclin E kinase inhibition (33P-ATP, histone H1); format: biochemical; details: 15 μM ATP
T1 construct: made in house; host or cells: Sf9 insect cells (baculovirus)
Description: CDK2/Cyclin E kinase was produced in Sf9 insect cells via baculoviral infection and purified on a NiNTA column (Qiagen). The kinase reactions were assayed with 1 mg/mL histone H1 in the presence of 15 μM ATP, 0.05 μCi [γ-^33P]ATP and of the test compound in a final volume of 10 μL, all in a reaction buffer (60 mM HEPES-NaOH, pH 7.5, 3 mM MgCl2, 3 mM MnCl2, 3 μM Na-orthovanadate, 1.2 mM DTT, 2.5 μg/50 μl PEG20.000). CDK5/p35 was purchased from ProQinase GmbH. The kinase reactions were assayed with 1 mg/mL histone H1 in the presence of 0.15 μM ATP, 0.05 μCi [γ-^33P]ATP and of the test compound in a final volume of 10 μL, all in a reaction buffer (60 mM HEPES-NaOH, pH 7.5, 3 mM MgCl2, 3 mM MnCl2, 3 μM Na-orthovanadate, 1.2 mM DTT, 2.5 μg/50 μl PEG20.000).
The reactions were stopped by adding 5 μL of 3% aq H3PO4. Aliquots were spotted onto P-81 phosphocellulose (Whatman), washed 3× with 0.5% aq H3PO4 and finally air-dried.

[1] = test system: G361 (malignant melanoma); experiment: MTT cytotoxicity assay, solid cancer cell line G361; format: cell-based; details: Homo sapiens, G-361, 72 h, three days
Description: (§1) The compounds were assayed using the following cell lines: G361 (malignant melanoma), MCF7 (breast adenocarcinoma), PLC/PRF/5 (liver hepatoma), PANC-1 (pancreatic carcinoma) and HCT116 (colon carcinoma). All cell lines were grown in DMEM medium supplemented with fetal bovine serum and L-glutamine and maintained at 37° C. in a humidified atmosphere with 5% CO2. For cytotoxicity assays, 4000-10000 cells were seeded into each well of a 96 well plate, allowed to stabilize for at least 16 h and then tested compounds were added at various concentrations ranging from 100 to 0.01 μM in triplicates. After three days, MTT solution (5 mg/ml; Sigma, St. Louis, USA) was added to cells and medium was replaced with DMSO after five hours. The absorbance was measured at 620 nm by employing a microplate reader. MTT assays were repeated 3 times for each drug application and untreated cells were used as reference.

Mcl-1 = experiment: Immunoblotting of apoptotic markers in HCT116 cells: Mcl-1; format: cell-based; details: 24 hours, FIG. 4
Description: (§2) Effect of novel compounds on apoptosis was confirmed by immunoblotting analysis of selected apoptotic proteins. For immunoblotting, cell were harvested, washed three times with ice-cold PBS and lysed in a buffer (50 mM Tris, pH 7.4, 250 mM NaCl, 5 mM EDTA, 50 mM NaF, 1 mM Na3VO4, 1% Nonidet P40) containing mixture of protease and phosphatase inhibitors (Sigma-Aldrich). 20 μg of total proteins were separated by SDS-polyacrylamide gel electrophoresis (SDS-PAGE) and transferred onto nitrocellulose membranes. Membranes were blocked in 5% milk and 0.1% Tween 20 in PBS and probed overnight with specific antibodies. Specific antibodies were purchased from SigmaAldrich (anti a-tubulin, clone DM1A), Santa Cruz Biotechnology (anti-Mcl-1, clone S-19; anti-PARP, clone F-2; anti-Mdm-2, clone SMP14; anti-Bcl-2), DAKO Cytomation Cell Signaling (anti-PUMA) or were a generous gift from Dr. B. Vojtesek (anti-p53, clone DO-1). All primary antibodies were diluted in PBS containing 5% powdered milk; 0.1% Tween 20. Peroxidase conjugated rabbit anti-mouse immunoglobulin or porcine anti-rabbit immunoglobulin antisera (DAKO) were used as the secondary antibodies and visualised with ECL reagents (GE-Healthcare Life Sciences).

[2] = test system: HUVECs (human umbilical vein endothelial cells); experiment: HUVEC proliferation assay (crystal violet); format: cell-based; details: Homo sapiens, HUVEC, 72 h, read-out: Inhibition of proliferation (EC50)
Description: To verify that novel compounds have anti-vascularisation properties, we analyzed their influence on the proliferation and migration of HUVECs. HUVECs (human umbilical vein endothelial cells) were purchased from Promocell (Heidelberg, Germany) and cultured in endothelial cell growth medium (ECGM, Promocell, Heidelberg, Germany) containing 10% FCS (Biochrom, Berlin, Germany). Experiments were performed using cells at passage 3.
For proliferation assay, 1.5×10^3 HUVECs were cultured for 24 h. Afterwards, cells were either left untreated or treated with novel compounds for 72 h. Proliferation assay was performed using crystal violet as described previously (Koltermann et al. 2007, Cell Mol. Life Sci. 64:1715-1722).

p53 = experiment: Immunoblotting of apoptotic markers in HCT116 cells: p53; format: cell-based; details: 24 hours, FIG. 4
Description: as §2

[3] = test system: breast carcinoma cell line MCF7; experiment: Cell cycle profile by BrdU/propidium iodide flow cytometry; format: cell-based; details: asynchronously growing MCF7, 24 h, FIG. 1
Description: Sub-confluent cells were treated with test compounds at different concentrations for 24 h. The cultures were pulse-labeled with […] 5-bromo-20-deoxyuridine (BrdU) for 30 min at 37° C. prior to harvesting. The cells were then washed in PBS, fixed with 70% ethanol, and denatured in 2 M HCl. Following neutralization, the cells were stained with anti-BrdU fluorescein-labeled antibodies, washed, stained with propidium iodide and analyzed by flow cytometry using a 488 nm laser

Mdm-2 = experiment: Immunoblotting of apoptotic markers in HCT116 cells: Mdm-2; format: cell-based; details: 24 hours, FIG. 4
Description: as §2

[4] = test system: MV4;11 (acute myelocytic leukemia); experiment: MTT cytotoxicity assay, leukemic cell line MV4;11; format: cell-based; details: Homo sapiens, MV4-11, 72 h, three days
Description: Cytotoxicity of the compounds is the major property determining their antileukemic efficacy in vivo. One of the parameters used, as the basis for cytotoxicity assays, is the metabolic activity of viable cells. For example, a microtiter assay, which uses (3-(4,5-dimethylthiazol-2-yl)-2,5-diphenyltetrazolium bromide (MTT), is widely used to quantitate cell proliferation and cytotoxicity. This assay is widely used in drug screening programs and in chemosensitivity testing. Because only metabolically active living cells reduce MTT to correspond purple formazan dye, these assays detect viable cells exclusively. The quantity of reduced MTT corresponds to the number of vital cells in the culture.
as §1, with “following leukemic” for “following”, “K562 (human chronic myelogenous leukaemia), HL60 (human promyelocytic leukaemia), CEM (human lymphoblastoid leukaemia), THP1 (human monocytic cell line), MV4; 11 (acute myelocytic leukemia).” for “G361 (malignant melanoma), MCF7 (breast adenocarcinoma), PLC/PRF/5 (liver hepatoma), PANC-1 (pancreatic carcinoma) and HCT116 (colon carcinoma).”, “RPMI” for “DMEM”, “2000-5000” for “4000-10000”, “of” for “of a”, “8” for “16”

## CC(C)c1[nH]nc2c(NCc3ccc(-c4ccccn4)cc3)nc(NCC(O)CN)nc12 (centres unmarked) [Compound 45]
CDK2/Cyclin E
  IC50: 0.051 µM
[1]
  IC50: 0.22 µM
Mcl-1
  level of anti-apoptotic protein Mcl-1 (immunoblot): dose-dependent decrease
[2]
  EC50: 176 nM
p53
  expression of tumor suppressor protein p53 (immunoblot): rapidly increased the expression
[3]
  effect on the cell cycle of MCF7: potently arrested cells in S, G2 and M phases
Mdm-2
  expression of Mdm-2 (immunoblot): decreased expression
[4]
  IC50: 0.51 µM
